Source: ChEMBL document CHEMBL1201862, “PubChem BioAssay data set” (2004)
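The compound was tested at five concentrations on cells cultured in 96-well plates, with a 48-hour exposure period. GI50 is the concentration that inhibits growth by half.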 The source made the active and inactive calls. No stated cut-off is given here; in the data, active = GI50 up to about 1.1 µM and inactive = higher.

What was measured:
Test in all cases: NCI-60 cell line screen, 48 h
SF-539 = test system: SF-539
HL-60 = test system: HL-60
A549 = test system: A549
SK-MEL-5 = test system: SK-MEL-5
HCC 2998 = test system: HCC 2998
UO-31 = test system: UO-31
OVCAR-3 = test system: OVCAR-3
NCI-H460 = test system: NCI-H460
RXF 393 = test system: RXF 393
SR = test system: SR
786-0 = test system: 786-0
SN12C = test system: SN12C
SW-620 = test system: SW-620
SNB-75 = test system: SNB-75
EKVX = test system: EKVX
LOX IMVI = test system: LOX IMVI
SK-MEL-2 = test system: SK-MEL-2

Measured: GI50

O=C(CN1CCN(c2cccc(Cl)c2)CC1)N1CCc2c([nH]c3ccccc23)C1c1cccnc1 (centres undefined)
inactive: SF-539 15.5 µM | HL-60 2.38 µM | A549 7.13 µM | SK-MEL-5 11.9 µM | HCC 2998 5.24 µM | UO-31 4.1 µM | OVCAR-3 15.5 µM | NCI-H460 4.4 µM | RXF 393 2.67 µM | SR 2.23 µM | 786-0 11.8 µM | SN12C 9.57 µM | SW-620 7.14 µM | SNB-75 7.62 µM | EKVX 16.8 µM

COC(=O)N/N=C/c1oc(-c2cccc([N+](=O)[O-])c2)c(-c2cccc([N+](=O)[O-])c2)c1[N+](=O)[O-]
inactive: HL-60 19.3 µM | A549 > 100 µM | SK-MEL-5 > 100 µM | HCC 2998 > 100 µM | UO-31 > 100 µM | OVCAR-3 > 100 µM | NCI-H460 > 100 µM | RXF 393 > 100 µM | SR 40.7 µM | 786-0 > 100 µM | SN12C > 100 µM | SW-620 > 100 µM | LOX IMVI 37.2 µM | EKVX > 100 µM

O=C(Nc1cc(Cl)ccc1Cl)c1cc2cccc(Br)c2oc1=O
inactive: SF-539 56.4 µM | HL-60 > 100 µM | A549 > 100 µM | SK-MEL-5 > 100 µM | SK-MEL-2 > 100 µM | UO-31 > 100 µM | OVCAR-3 59.8 µM | NCI-H460 > 100 µM | RXF 393 > 100 µM | 786-0 > 100 µM | SN12C > 100 µM | SW-620 > 100 µM | SNB-75 34.9 µM | LOX IMVI > 100 µM | EKVX > 100 µM

CC(=O)Nc1ccc(/C=C/C(=O)c2sc(-c3cccnc3)nc2C)cc1
inactive: SF-539 > 100 µM | HL-60 > 100 µM | A549 > 100 µM | SK-MEL-5 > 100 µM | HCC 2998 > 100 µM | SK-MEL-2 > 100 µM | UO-31 > 100 µM | OVCAR-3 > 100 µM | NCI-H460 > 100 µM | RXF 393 > 100 µM | 786-0 > 100 µM | SN12C > 100 µM | SW-620 > 100 µM | SNB-75 > 100 µM | LOX IMVI > 100 µM | EKVX > 100 µM

CCCCCCCCCOC(=S)NC
inactive: SF-539 17.6 µM | HL-60 15.4 µM | A549 24.8 µM | SK-MEL-5 19.1 µM | HCC 2998 19.1 µM | SK-MEL-2 19.5 µM | UO-31 11.2 µM | OVCAR-3 19.9 µM | NCI-H460 19.7 µM | RXF 393 > 10 µM | 786-0 18.2 µM | SN12C 18.4 µM | SW-620 20.9 µM | SNB-75 26.1 µM | LOX IMVI 18.2 µM | EKVX 28.1 µM

C/C(CC(=O)Nc1cccc([N+](=O)[O-])c1)=N\NC(=O)C[n+]1ccccc1
inactive: SF-539 > 100 µM | HL-60 > 100 µM | A549 > 100 µM | SK-MEL-5 > 100 µM | HCC 2998 > 100 µM | SK-MEL-2 > 100 µM | UO-31 > 100 µM | OVCAR-3 > 100 µM | NCI-H460 > 100 µM | RXF 393 > 100 µM | 786-0 > 100 µM | SW-620 > 100 µM | SNB-75 > 100 µM | LOX IMVI > 100 µM | EKVX > 100 µM

N=C(N)NCCCC(Nc1c2ccccc2[n+]([O-])c2ccccc12)C(=O)O (centres undefined)
inactive: HL-60 14.8 µM | A549 > 100 µM | SK-MEL-5 22.6 µM | HCC 2998 27.2 µM | SK-MEL-2 88.3 µM | UO-31 30.8 µM | OVCAR-3 63.4 µM | NCI-H460 46 µM | 786-0 67.5 µM | SN12C 44.1 µM | SW-620 59.2 µM | SNB-75 34.8 µM | LOX IMVI 37.3 µM | EKVX 96.6 µM

CCOC(=O)C(/C(=N\NC(=O)OC)C(=O)Nc1cc(OC)ccc1OC)c1cnc2ccccc2n1 (centres undefined)
inactive: SF-539 > 100 µM | HL-60 69.2 µM | A549 > 100 µM | SK-MEL-5 > 100 µM | HCC 2998 > 100 µM | UO-31 > 100 µM | NCI-H460 > 100 µM | RXF 393 > 100 µM | SR > 100 µM | 786-0 > 100 µM | SN12C > 100 µM | SW-620 > 100 µM | SNB-75 > 100 µM | LOX IMVI > 100 µM | EKVX > 100 µM

CCN(CC)CC(=O)NC1c2ccccc2Oc2ccccc21
inactive: SF-539 > 100 µM | HL-60 > 100 µM | A549 > 100 µM | SK-MEL-5 > 100 µM | HCC 2998 > 100 µM | UO-31 > 100 µM | NCI-H460 > 100 µM | RXF 393 > 100 µM | SR > 100 µM | 786-0 > 100 µM | SN12C > 100 µM | SW-620 > 100 µM | SNB-75 > 100 µM | LOX IMVI > 100 µM | EKVX > 100 µM

CCCCNC(=S)OCCC(C)CCCC(C)C (centres undefined)
inactive: SF-539 > 100 µM | HL-60 > 100 µM | A549 > 100 µM | SK-MEL-5 > 100 µM | HCC 2998 > 100 µM | SK-MEL-2 > 100 µM | UO-31 > 100 µM | NCI-H460 > 100 µM | RXF 393 > 100 µM | SR > 100 µM | 786-0 > 100 µM | SN12C > 100 µM | SW-620 > 100 µM | SNB-75 35.3 µM | LOX IMVI > 100 µM | EKVX > 100 µM

N#CCCN(c1ccc(/C=C2\N=C(Cc3ccccc3)OC2=O)cc1)S(=O)(=O)c1ccccc1
inactive: SF-539 > 100 µM | HL-60 > 100 µM | A549 > 100 µM | SK-MEL-5 > 100 µM | HCC 2998 > 100 µM | SK-MEL-2 > 100 µM | UO-31 > 100 µM | OVCAR-3 > 100 µM | NCI-H460 > 100 µM | RXF 393 > 100 µM | 786-0 > 100 µM | SN12C > 100 µM | SW-620 > 100 µM | SNB-75 > 100 µM | LOX IMVI > 100 µM | EKVX > 100 µM

CN(C)CCC(/C=C/c1ccccc1)=N\Nc1c(F)c(F)c(F)c(F)c1F
inactive: SF-539 > 100 µM | HL-60 16 µM | A549 72.6 µM | SK-MEL-5 15.5 µM | SK-MEL-2 41.6 µM | UO-31 76.4 µM | OVCAR-3 > 100 µM | NCI-H460 27.7 µM | RXF 393 11.3 µM | SR 28.4 µM | 786-0 > 100 µM | SN12C 64.6 µM | SW-620 > 100 µM | SNB-75 9.82 µM | LOX IMVI > 100 µM | EKVX > 100 µM

O=CC1CCCc2ccccc21 (centres undefined)
inactive: HL-60 > 63 µM | A549 > 100 µM | SK-MEL-5 > 100 µM | HCC 2998 > 100 µM | SK-MEL-2 > 100 µM | UO-31 > 100 µM | OVCAR-3 > 100 µM | NCI-H460 > 61.8 µM | RXF 393 > 100 µM | SR > 100 µM | 786-0 > 100 µM | SN12C > 100 µM | SW-620 > 40.4 µM | SNB-75 > 100 µM | LOX IMVI > 44.1 µM | EKVX > 100 µM
